Data taken from publication PMC7155171, “Probing the Open Global Health Chemical Diversity Library for Multistage-Active Starting Points for Next-Generation Antimalarials” (ACS Infectious Diseases, 2020).
Where two headings read alike, the source gives them in different places.

Legend:
P. falciparum Dd2 = assay: SYBR green I asexual blood stage proliferation assay (96 h); assay type: cell-based, Plasmodium falciparum; conditions: Plasmodium falciparum, DD2, 11-pt dose response, 96hr
[1] = tested on: P. falciparum Dd2 (PfLuc) line expressing firefly luciferase, asexual blood stage; assay: microbe, parasite or virus in culture; assay type: cell-based, Plasmodium falciparum; conditions: for IC50 / Emax: Plasmodium falciparum
[2] = read-out: P. falciparum Sybr Green I ABS 11-pt Reconfirmation Dose Response (96hr): IC50
[3] = read-out: P. falciparum Sybr Green I ABS 11-pt Reconfirmation Dose Response (96hr): Maximum inhibition (%)
[4] = DD2, read-out: P. falciparum Luciferase ABS 11-pt Reconfirmation Dose Response (48hr): IC50, 11-pt dose response, 48hr
[5] = DD2, 8-pt dose response, 96hr, read-out: P. falciparum Luciferase ABS 8-pt Reconfirmation Dose Response (96hr): IC50
[6] = DD2, 8-pt dose response, 96hr, read-out: P. falciparum Luciferase ABS 8-pt Reconfirmation Dose Response (96hr): Maximum inhibition (%)
[7] = DD2, 11-pt dose response, 48hr, read-out: P. falciparum Luciferase ABS 11-pt Reconfirmation Dose Response (48hr): Maximum inhibition (%)
[8] = DD2, 11-pt dose response, 96hr, read-out: P. falciparum Luciferase ABS 11-pt Reconfirmation Dose Response (96hr): IC50
[9] = DD2, 11-pt dose response, 96hr, read-out: P. falciparum Luciferase ABS 11-pt Reconfirmation Dose Response (96hr): Maximum inhibition (%)
[10] = Sybr Green I, read-out: CDD P. falciparum Sybr Green I ABS 11-pt Reconfirmation Dose Response (96hr): IC50
[11] = Sybr Green I, read-out: CDD P. falciparum Sybr Green I ABS 11-pt Reconfirmation Dose Response (96hr): Maximum inhibition (%)
[12] = DD2, read-out: CDD P. falciparum Luciferase ABS 11-pt Reconfirmation Dose Response (48hr): IC50 (μM), 11-pt dose response, 48hr
[13] = DD2, 8-pt dose response, 96hr, read-out: CDD P. falciparum Luciferase ABS 8-pt Reconfirmation Dose Response (96hr): IC50
[14] = DD2, 8-pt dose response, 96hr, read-out: CDD P. falciparum Luciferase ABS 8-pt Reconfirmation Dose Response (96hr): Maximum inhibition (%)
[15] = DD2, 11-pt dose response, 48hr, read-out: CDD P. falciparum Luciferase ABS 11-pt Reconfirmation Dose Response (48hr): Maximum inhibition (%)
[16] = DD2, 11-pt dose response, 96hr, read-out: CDD P. falciparum Luciferase ABS 11-pt Reconfirmation Dose Response (96hr): IC50
[17] = DD2, 11-pt dose response, 96hr, read-out: CDD P. falciparum Luciferase ABS 11-pt Reconfirmation Dose Response (96hr): Maximum inhibition (%)
[18] = 96 h incubation, Dd2 luciferase, read-out: 96 hour Pfluc IC50

Compound	IC50 (P. falciparum Dd2; [2]) [µM]	Emax (P. falciparum Dd2; [3]) [%]	IC50 [1, 4] [µM]	IC50 [1, 5] [µM]	Emax [1, 6] [%]	Emax [1, 7] [%]	IC50 [1, 8] [µM]	Emax [1, 9] [%]	IC50 (P. falciparum Dd2; [10]) [µM]	Emax (P. falciparum Dd2; [11]) [%]	IC50 [1, 12] [µM]	IC50 [1, 13] [µM]	Emax [1, 14] [%]	Emax [1, 15] [%]	IC50 [1, 16] [µM]	Emax [1, 17] [%]	activity in ABS screens [1]	IC50 [1, 18] [µM]
OC1(c2ccc(F)cc2)CCN(Cc2ccccc2N2CCCC2)CC1 [DDD01058479]	5.91	82.4	3.24	1.38	88.9	76.5	1.95	94.3										
Cc1cc(CN2CCC(CNS(=O)(=O)c3ccc(Br)s3)CC2)c(C)o1 [DDD01027665]									> 12.5	32.7	3.89	0.63	89.4	82	1.08	95		
CC(O)c1cccc(Nc2nc(NCCO)c3ccccc3n2)c1 (stereo not drawn) [DDD01037968]									3.13	95.8	2.9	0.29	92.4	96.3	0.739	99.6	active in ABS screens	
NCC1(c2cccc(Br)c2)CCOCC1 [DDD01079955]									> 4.16	76.8	4.79	0.84	87.3	58.8	1.63	85.9		
CCCOc1ccc2ccccc2c1CN1CC[C@@]2(O)CCNC[C@H]2C1 [DDD01246029]									2.76	96.5	2.85	1		96.3	1.42	98.8		
CC(C)c1nccc(C2(c3ccccc3Cl)CCNCC2)n1 [DDD01250092]									5.4	74.3	3.82	1.08	86.6	58.4	1.95	90.3		
CN1CCN(S(=O)(=O)c2ccc(Cl)c(Cl)c2)c2cnccc21 [DDD01077309]									5.69	82.8	6.77	0.57	92.2	78.7	1.46	95.5		
Cc1ccsc1CN(Cc1cccnc1)C1CC(C)(C)NC(C)(C)C1 [DDD01060982]									> 4.16	70.5	4.19	1.04	88.1	61.9	1.59	95.6		
CN1[C@H](Cn2cccn2)C[C@@H]2CN(Cc3cccs3)CC[C@@H]21 [DDD01032287]									> 4.16	67.6	> 12.5	0.77	80.2	45.9	> 1.39	85.9		
CN[C@@H](C)C(=O)N(Cc1cccc(C)c1)Cc1ccccc1OC [DDD01246872]									1.07	62.7	1.7	0.47	85.5	61.6	0.75	89.6		
Cc1ccc(C2(CN3CCN(Cc4cnc(C)n4C)CC3)CC2)cc1 [DDD01059041]									1.32	88.5	1.95	0.25		77.8	0.532			
CC(O)CN1CCC(CNCc2cccc(OC(F)(F)F)c2)CC1 (stereo not drawn) [DDD01297560]									2.94	91.2	> 12.5	1.04	91	58.6	5.4	87.8		
COc1cc(C(=O)NCC2(N(C)C)CCN(C)CC2)c2ccccc2n1 [DDD01057375]	> 1.39	63.6	> 12.5	< 0.00232	88.6	53		87.3										0.00714
CN1CCC2(CCCN(c3nccc(C(F)(F)F)n3)C2)CC1 [DDD01028783]									8.82	74	> 12.5	0.75	87.2	60.6	3.57	84.9		
Fc1ccc(F)c(CN2CCC(c3cc4ncccc4cn3)CC2)c1 [DDD01058752]									0.859	90.5	1.07	0.41	96.2	94.1	0.979	98		
COCCOc1ccccc1CNCC1COC2(CCCC2)O1 (stereo not drawn) [DDD01074854]	2.13	71.9	> 12.5	1.89	84.3	29.8	2.71	75.6										
CC(C)CN1CCCC1c1ccc(C(=O)Nc2cccnc2)s1 (stereo not drawn) [DDD01247321]									4.77	91.6	4.09	0.77	91.9	94.3	2.12	99.9		
O=C(CN1CCCC(c2ccn[nH]2)C1)Nc1nc2c(s1)CCC2 (stereo not drawn) [DDD01079497]									0.192	73.2	0.618	0.22	90.5		0.451	97.6		
CC(O)CN1CCC(CNCc2cccc(C(F)(F)F)c2)CC1 (stereo not drawn) [DDD01300262]	2.46	91.1	9.69	1.59	89.5	69.7	4.76	92.7										
CNc1nc(C)cc(NC2CCCN(C3Cc4ccccc4C3)C2)n1 (stereo not drawn) [DDD01254555]									1.02	87	2.19	1.11	92.9	82.6	1.07	100		
CCOc1ccc(Br)cc1C1CCCN1 (stereo not drawn) [DDD01034787]									7.59	78.7	4.88	0.85	85.8	59.1	1.38	86.3		
Cc1ccccc1N1CCCN(CC2(O)CCCNC2)CC1 (stereo not drawn) [DDD01254676]									1.59	91.2	3.64	0.54	90.4	89.1	1.37	97.2		
Cc1cc(C)cc(CN2C[C@H]3COC[C@H](N4CCN(C)CC4)[C@H]3C2)c1 [DDD01083756]									1.08		2.44	0.23		79.9	0.791	97.2		
Cc1nc(C2CCNCC2)cc(N(C)Cc2cc3cc(F)ccc3[nH]2)n1 [DDD01251474]									3.2	90.9	2.3	0.99	93.3	98.2	0.415	100		
Cc1cc(NC(=O)NC2CCN(C(C)C)CC2)c2ncccc2c1 [DDD01076635]	5.3	53.2	> 12.5	2.21		47.1	5.47	86.3										
Cc1nccn1CCCN1CCCC(c2ccccc2)C1 (stereo not drawn) [DDD01251840]									0.88	93.4	3.3	0.25	91.7	83.3	0.14	99.5		
Cc1cccc(C)c1Nc1noc2c1CN(C(=O)c1cn(C)cn1)CC2 [DDD01056797]									0.22	97.2	0.494	0.23	95.7	99.4	0.535	101		
COc1cc(CNCC(O)c2ccc(F)cc2F)cc2c1OCO2 (stereo not drawn) [DDD01296730]	4.87		4.89	1.16	88.4	87.3	2.48	98.1										
CCN1CCCN(S(=O)(=O)c2cc3ccccc3o2)CC1 [DDD01067562]									1.46	73.1	8.55	0.58	87.2	65	1.34	85.4		
Clc1ccc(C2(CNC3=NCCN3)CCCC2)cc1 [DDD01067443]									2.26	98.5	5.56	0.25	94.9	90	0.995	98.3		1
